# Results from patent US20260191807A1, “COMPOSITIONS AND METHODS FOR TREATMENT OF PRADER-WILLI SYNDROME” (ERX Pharmaceuticals Inc., priority 2022, published 2026).
# Several values for one entry are separate records, joined by “and”; a condition that tells them apart may be missing. Equal values may be shown once.
# What was measured:
# Type in all cases: in vivo
# C57BL/6 DIO mice [1] = test: Nestlet shredding test in C57BL/6 DIO mice; conditions: Belaronib 0.3 mg/kg SC, Celastrol 0.2 mg/kg IP daily, mean
# Protocol: (§1) C57BL/6 mice were treated with test compound (Celastrol) or controls as shown in the table below from Day 1 to Day 15. […] One mouse was excluded from the study because it appeared resistant to nestlet shredding prior to treatment.
# Male C57BL/6 DIO mice were obtained from Jackson Labs (Bar Harbor, ME). The mice arrived at ages 17 weeks and mice were housed 3 per cage on arrival. Prior to dosing in the study, the mice were singly housed.
# (§2) All treatment volumes were 10 mL/kg. Utilizing the art-recognized nestlet shredding mouse model, […]. Celastrol and the vehicle control were administered intraperitoneally using a 30G needle. Beloranib was administered subcutaneously using a 30G needle. All treatments were administered daily in the afternoon at 17:00 h, 1 hour before dark cycle from Day 1 to end of dosing.
# Celastrol was dissolved in a pharmaceutically-acceptable excipient, e.g., 50% Solutol/50% DMAC, and this stock solution aliquoted and stored at −80° C. until treatment day. On the day of treatment, an aliquot of the stock solution was thawed and diluted […] with saline to obtain the desired dosing solution strength in 5% Solutol/5% dimethylacetamide/90% saline. The vehicle control was 5% Solutol/5% dimethylacetamide/90% saline. Beloranib was dissolved in 100% DMSO, and this stock solution was aliquoted and stored at −80° C. until treatment day. On the day of treatment, an aliquot of the stock solution was thawed and diluted 1:10 with deionized (DI) water to obtain the desired dosing solution strength in 10% DMSO.
# The nestlet shredding test is an art-recognized animal model for human repetitive, anxiety, and/or compulsive behaviors. In the nestlet shredding test, a nestlet comprised of pulped fiber, e.g., cotton fiber, is preweighed and placed on top of cage bedding and the amount of the nestlet remaining intact after a test session of pre-determined time is evaluated.
# Nestlet shredding was determined on day 1, day 6, day 11 and day 15 by placing a fresh nestlet prior to the dark cycle and measuring the weight of the remaining nestlet at 12 and 24 hours on an Ohaus model CS 200 balance. Percent shredding was calculated based on the initial nestlet weight.
# C57BL/6-Magel2 mice = test: Daily food intake of C57BL/6 Magel2 mice; conditions: for Food intake (food weights in g/day): mean
# Protocol: In the study disclosed herein, celastrol at was administered intraperitoneally using a 30G needle at a dose of 0.2 mg/kg to five female Magel2 homozygous mice (−/−) and four male mice heterozygous for Magel2 (−/+). In addition, vehicle was administered to four male mice heterozygous for Magel2 (−/+) for 21 days.
# C57BL/6-Magel2 mice were bred for purpose from cryo recovery by Jackson Labs (Bar Harbor, ME) and arrived at the testing facility at age 8 weeks.
# as §2, with “needle.” for “needle. Beloranib was administered subcutaneously using a 30G needle.”
# Celastrol was dissolved in 50% Solutol/50% DMAC. The resulting stock solution aliquoted and stored at −80° C. until treatment day. On the day of treatment an aliquot of the stock solution was thawed and diluted 1:20 with saline to obtain the desired dosing solution strength in 5%
# Daily food intake was calculated based on remaining food weight compared to food weight on the previous day using an Ohaus model CS 200 balance.
# C57BL/6 DIO mice [2] = test: Body weights of C57BL/6 DIO mice during daily treatment; conditions: Celastrol 0.2 mg/kg IP daily; for Body weights (expressed as a percentage of day-1 weight) / Body weights (in grams): Belaronib 0.3 mg/kg SC, mean
# C57BL/6 mice = test: Deaths and clinical signs, C57BL/6 DIO study; conditions: C57BL/6 DIO mice treated Day 1 to Day 15; Celastrol 0.2 mg/kg IP
# Protocol: as §1
compound,measurement,setting,value
CC1=C(O)C(=O)C=C2C1=CC=C1[C@@]2(C)CC[C@@]2(C)[C@@H]3C[C@](C)(C(=O)O)CC[C@]3(C)CC[C@]12C [Celastrol],Nestlet Shredding (percent of nestlet shredded),"C57BL/6 DIO mice [1]; Day 1, 12 hour",94.4%
same,Nestlet Shredding (percent of nestlet shredded),"C57BL/6 DIO mice [1]; Day 6, 12 hour",70.1%
same,Nestlet Shredding (percent of nestlet shredded),"C57BL/6 DIO mice [1]; Day 6, 24 hour",93.6%
same,Nestlet Shredding (percent of nestlet shredded),"C57BL/6 DIO mice [1]; Day 11, 12 hour",43.7%
same,Nestlet Shredding (percent of nestlet shredded),"C57BL/6 DIO mice [1]; Day 11, 24 hour",71.0%
same,Nestlet Shredding (percent of nestlet shredded),"C57BL/6 DIO mice [1]; Day 15, 12 hour",50.9%
same,Nestlet Shredding (percent of nestlet shredded),"C57BL/6 DIO mice [1]; Day 15, 24 hour",63.3%
same,Food intake (food weights in g/day),"C57BL/6-Magel2 mice; Day 1, Magel2 (−/+) heterozygous male mice, 0.2 mg/kg IP QD",6.6 g/day
same,Food intake (food weights in g/day),"C57BL/6-Magel2 mice; Day 1, Magel2 (−/−) homozygous female mice, 0.2 mg/kg IP QD",5.9 g/day
same,Food intake (food weights in g/day),"C57BL/6-Magel2 mice; Day 2, Magel2 (−/+) heterozygous male mice, 0.2 mg/kg IP QD",4.9 g/day
same,Food intake (food weights in g/day),"C57BL/6-Magel2 mice; Day 2, Magel2 (−/−) homozygous female mice, 0.2 mg/kg IP QD",5.9 g/day
same,Food intake (food weights in g/day),"C57BL/6-Magel2 mice; Day 4, Magel2 (−/+) heterozygous male mice, 0.2 mg/kg IP QD",7.0 g/day
same,Food intake (food weights in g/day),"C57BL/6-Magel2 mice; Day 4, Magel2 (−/−) homozygous female mice, 0.2 mg/kg IP QD",6.4 g/day
same,Food intake (food weights in g/day),"C57BL/6-Magel2 mice; Day 6, Magel2 (−/+) heterozygous male mice, 0.2 mg/kg IP QD",6.3 g/day
same,Food intake (food weights in g/day),"C57BL/6-Magel2 mice; Day 6, Magel2 (−/−) homozygous female mice, 0.2 mg/kg IP QD",6.2 g/day
same,Food intake (food weights in g/day),"C57BL/6-Magel2 mice; Day 8, Magel2 (−/+) heterozygous male mice, 0.2 mg/kg IP QD",5.2 g/day
same,Food intake (food weights in g/day),"C57BL/6-Magel2 mice; Day 8, Magel2 (−/−) homozygous female mice, 0.2 mg/kg IP QD",4.6 g/day
same,Food intake (food weights in g/day),"C57BL/6-Magel2 mice; Day 10, Magel2 (−/+) heterozygous male mice, 0.2 mg/kg IP QD",3.1 g/day
same,Food intake (food weights in g/day),"C57BL/6-Magel2 mice; Day 10, Magel2 (−/−) homozygous female mice, 0.2 mg/kg IP QD",2.4 g/day
same,Food intake (food weights in g/day),"C57BL/6-Magel2 mice; Day 11, Magel2 (−/+) heterozygous male mice, 0.2 mg/kg IP QD",3.9 g/day
same,Food intake (food weights in g/day),"C57BL/6-Magel2 mice; Day 11, Magel2 (−/−) homozygous female mice, 0.2 mg/kg IP QD",1.4 g/day
same,Food intake (food weights in g/day),"C57BL/6-Magel2 mice; Day 13, Magel2 (−/+) heterozygous male mice, 0.2 mg/kg IP QD",5.1 g/day
same,Food intake (food weights in g/day),"C57BL/6-Magel2 mice; Day 13, Magel2 (−/−) homozygous female mice, 0.2 mg/kg IP QD",4.0 g/day
same,Food intake (food weights in g/day),"C57BL/6-Magel2 mice; Day 15, Magel2 (−/+) heterozygous male mice, 0.2 mg/kg IP QD",5.9 g/day
same,Food intake (food weights in g/day),"C57BL/6-Magel2 mice; Day 15, Magel2 (−/−) homozygous female mice, 0.2 mg/kg IP QD",5.2 g/day
same,Food intake (food weights in g/day),"C57BL/6-Magel2 mice; Day 17, Magel2 (−/+) heterozygous male mice, 0.2 mg/kg IP QD",3.2 g/day
same,Food intake (food weights in g/day),"C57BL/6-Magel2 mice; Day 17, Magel2 (−/−) homozygous female mice, 0.2 mg/kg IP QD",2.2 g/day
same,Food intake (food weights in g/day),"C57BL/6-Magel2 mice; Day 18, Magel2 (−/+) heterozygous male mice, 0.2 mg/kg IP QD",2.5 g/day
same,Food intake (food weights in g/day),"C57BL/6-Magel2 mice; Day 18, Magel2 (−/−) homozygous female mice, 0.2 mg/kg IP QD",3.2 g/day
same,Food intake (food weights in g/day),"C57BL/6-Magel2 mice; Day 20, Magel2 (−/+) heterozygous male mice, 0.2 mg/kg IP QD",6.2 g/day
same,Food intake (food weights in g/day),"C57BL/6-Magel2 mice; Day 20, Magel2 (−/−) homozygous female mice, 0.2 mg/kg IP QD",4.6 g/day
same,Food intake (food weights in g/day),"C57BL/6-Magel2 mice; Day 21, Magel2 (−/+) heterozygous male mice, 0.2 mg/kg IP QD",5.0 g/day
same,Food intake (food weights in g/day),"C57BL/6-Magel2 mice; Day 21, Magel2 (−/−) homozygous female mice, 0.2 mg/kg IP QD",11.1 g/day
same,Food intake (food weights in g/day),"C57BL/6-Magel2 mice; Day −2 (before dosing), Magel2 (−/+) heterozygous male mice",5.0 g/day
same,Food intake (food weights in g/day),"C57BL/6-Magel2 mice; Day −2 (before dosing), Magel2 (−/−) homozygous female mice",3.2 g/day
same,difference in food intake between the groups (in words),"C57BL/6-Magel2 mice; treated Magel2 (−/+) and (−/−) groups versus vehicle, 0.2 mg/kg IP QD",not a significant difference in food intake
same,Body weights (expressed as a percentage of day-1 weight),C57BL/6 DIO mice [2]; Day 1,100.0%
same,Body weights (in grams),C57BL/6 DIO mice [2]; Day 1,44.8 grams and 45.4 grams
same,Body weights (expressed as a percentage of day-1 weight),C57BL/6 DIO mice [2]; Day 2,98.6%
same,Body weights (in grams),C57BL/6 DIO mice [2]; Day 2,44.8 grams
same,Body weights (expressed as a percentage of day-1 weight),C57BL/6 DIO mice [2]; Day 3,95.8%
same,Body weights (in grams),C57BL/6 DIO mice [2]; Day 3,43.5 grams
same,Body weights (expressed as a percentage of day-1 weight),C57BL/6 DIO mice [2]; Day 4,92.8%
same,Body weights (in grams),C57BL/6 DIO mice [2]; Day 4,42.2 grams
same,Body weights (expressed as a percentage of day-1 weight),C57BL/6 DIO mice [2]; Day 5,89.6%
same,Body weights (in grams),C57BL/6 DIO mice [2]; Day 5,40.7 grams
same,Body weights (expressed as a percentage of day-1 weight),C57BL/6 DIO mice [2]; Day 6,86.2%
same,Body weights (in grams),C57BL/6 DIO mice [2]; Day 6,39.2 grams
same,Body weights (expressed as a percentage of day-1 weight),C57BL/6 DIO mice [2]; Day 7,83.8%
same,Body weights (in grams),C57BL/6 DIO mice [2]; Day 7,38.1 grams
same,Body weights (expressed as a percentage of day-1 weight),C57BL/6 DIO mice [2]; Day 8,81.3%
same,Body weights (in grams),C57BL/6 DIO mice [2]; Day 8,37.0 grams
same,Body weights (expressed as a percentage of day-1 weight),C57BL/6 DIO mice [2]; Day 9,79.2%
same,Body weights (in grams),C57BL/6 DIO mice [2]; Day 9,36.0 grams
same,Body weights (expressed as a percentage of day-1 weight),C57BL/6 DIO mice [2]; Day 10,76.5%
same,Body weights (in grams),C57BL/6 DIO mice [2]; Day 10,34.8 grams
same,Body weights (expressed as a percentage of day-1 weight),C57BL/6 DIO mice [2]; Day 11,73.9%
same,Body weights (in grams),C57BL/6 DIO mice [2]; Day 11,33.6 grams
same,Body weights (expressed as a percentage of day-1 weight),C57BL/6 DIO mice [2]; Day 12,72.2%
same,Body weights (in grams),C57BL/6 DIO mice [2]; Day 12,32.8 grams
same,Body weights (expressed as a percentage of day-1 weight),C57BL/6 DIO mice [2]; Day 13,71.1%
same,Body weights (in grams),C57BL/6 DIO mice [2]; Day 13,32.3 grams
same,Body weights (expressed as a percentage of day-1 weight),C57BL/6 DIO mice [2]; Day 14,70.1%
same,Body weights (in grams),C57BL/6 DIO mice [2]; Day 14,31.9 grams
same,Body weights (expressed as a percentage of day-1 weight),C57BL/6 DIO mice [2]; Day 15,69.2%
same,Body weights (in grams),C57BL/6 DIO mice [2]; Day 15,31.4 grams
same,body weight lost (percentage of day 1 body weight),"C57BL/6 DIO mice [2]; at day 15, Beloranib 0.3 mg/kg SC, vehicle-treated mice lost 15.5%",30.8%
same,deaths or abnormal clinical signs,C57BL/6 mice,No deaths or abnormal clinical signs
